The source of these data is US9127027B2, “Epoxyeicosatrienoic acid analogs and methods of making and using the same” (The Medical College of Wisconsin, Inc., priority 2011, dated 2015).

Structures are written as SMILES. Read-outs that look alike come from different tables or passages of the source. Where only a bound is given, the exact number is not on record here.

The test system of one test is bovine coronary artery. Description: Vasorelaxant activity in bovine coronary artery rings precontracted with U-46619. The class given is cell-based. To be noted: for activation at 10 µM / Vascular Relax. % (10 μM): 100% relaxation = basal pre-U-46619 tension; for activation at 10 µM: read-out: Vascular Relax. % (10 μM); for EC50: bovine coronary artery, read-out: Vascular Relax. EC50. Here is the method:
Vasorelaxant activity was measured in bovine coronary artery. Bovine hearts were obtained and the left anterior descending coronary artery was dissected and cleaned of connective tissue. Vessels of 1 mm diameter were cut into rings of 3 mm width as previously described (3, 27, 39). […] The vessels were suspended from a pair of stainless steel hooks in a 6-ml water-jacketed organ chamber. […] One hook was anchored to a steel rod and the other hook to a force transducer (model FT-03C; Grass Instruments, West Warwick, R.I.). Tension of the vessel was measured by an ETH-400 bridge amplifier, and the data were acquired with a MacLab 8e analog-to-digital converter and MacLab software version 3.5.6 (AD Instruments, Milford, Mass.) and stored on a Macintosh computer for subsequent data analysis.
Basal tension was set at the length-tension maximum of 3.5 g and equilibrated for 1.5 h. KCl (40 mM) was added to the chamber until reproducible maximal contractions were maintained. […] Cumulative additions of compounds were added to the chamber. Between concentration-response curves, the chambers were rinsed with fresh Krebs buffer, 40 mM KCl was administered to determine the maximum contraction, and the vessels were rinsed. Consecutive concentration-response curves were performed with 14,15-EET followed by a concentration-response curve to a compound. The experiment was always repeated with the order of the agonists reversed. […] The relaxation was plotted versus compound concentration and the EC50 determined utilizing statistical software.

Another test addresses Human recombinant sEH (Homo sapiens (Human), UniProt P34913). Description: Soluble epoxide hydrolase inhibition (PHOME fluorescent substrate). The class given is biochemical. Conditions: Table 1 head prints μM (Table 2 prints nM for same numbers); read-out: sEHi IC50. The method, then:
Compounds were tested for their ability to inhibit recombinant soluble epoxide hydrolase (sEH) protein. The assay utilizes (3-Phhenyl-oxiranyl)-acetic acid cyano-(6-methoxy-naphthalen-2-yl)-methyl ester (PHOME), a sensitive substrate for sEH that can be used to monitor the activity of both human and murine enzymes. […] Human recombinant sEH was incubated with substrate and compounds ranging in concentration from 0.1 to 1000 nM.

Sequence of Human recombinant sEH (P34913 whole entry): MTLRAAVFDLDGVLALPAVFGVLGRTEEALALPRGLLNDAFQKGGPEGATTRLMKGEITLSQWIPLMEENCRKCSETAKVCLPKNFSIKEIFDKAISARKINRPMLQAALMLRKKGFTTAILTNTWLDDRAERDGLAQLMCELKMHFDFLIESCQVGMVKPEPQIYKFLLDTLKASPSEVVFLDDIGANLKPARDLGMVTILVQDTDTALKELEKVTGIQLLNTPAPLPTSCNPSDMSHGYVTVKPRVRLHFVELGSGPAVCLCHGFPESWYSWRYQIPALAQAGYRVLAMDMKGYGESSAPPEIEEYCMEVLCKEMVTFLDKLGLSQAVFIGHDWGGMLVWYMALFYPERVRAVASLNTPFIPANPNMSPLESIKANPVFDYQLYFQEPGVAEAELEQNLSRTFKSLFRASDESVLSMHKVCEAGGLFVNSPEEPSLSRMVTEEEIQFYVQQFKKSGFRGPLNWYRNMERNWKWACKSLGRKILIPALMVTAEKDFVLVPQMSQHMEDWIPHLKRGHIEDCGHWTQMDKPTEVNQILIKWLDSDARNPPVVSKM

With `CCCCCNC(=O)NCCCC/C=C\CCCCCC1SC(=O)NC1=O` (stereo not shown) [Compound 24, 1-(11-(2,4-Dioxothiazolidin-5-yl)undec-5(Z)-enyl)-3-n-pentylurea], in the test on bovine coronary artery (Bos taurus), the activation at 10 µM amounted to 47% and the EC50 is more than 10000 nM. At Human recombinant sEH, the IC50 amounted to 0.057 µM.

Turning to `CCCCNC(=O)C(=O)NCCCC/C=C\CCCCCCC(=O)OCCOCCOCCO` [Compound 3, 2-(2-(2-Hydroxyethoxy)ethoxy)ethyl13-(2-(n-butylamino)-2 oxoacetamido)tridec-8(Z)-enoate], in the test with bovine coronary artery, the “Vascular Relax. % (10 μM)” value was found to be 104% and the EC50 is 1500 nM. The 50% inhibitory concentration (IC50) at Human recombinant sEH is more than 0.5 µM.

As for `CCCCCNC(=O)NCCCCCOc1cccc2sc(NC(C)=O)nc12` [Compound 31, N-(4-(5-(3-n-Pentylureido)pentyloxy)benzo[d]thiazol-2-yl)acetamide], the “Vascular Relax. % (10 μM)” value with bovine coronary artery turned out to be 73%. The EC50 in the test with bovine coronary artery (Bos taurus) stood at 900 nM. In addition, the IC50 at Human recombinant sEH was more than 0.5 µM.

`CCCCCNC(=O)NCCCC/C=C\CCCCCCc1nsc(=O)[nH]1` [Compound 29]: the “Vascular Relax. % (10 μM)” value in the test on bovine coronary artery turned out to be 54%. Also, in the test with bovine coronary artery (Bos taurus), the EC50 is 2400 nM. In addition, the IC50 at Human recombinant sEH was determined as 0.231 µM.

Take `CCCCCNC(=O)NCCCC/C=C\CCCCCCC(=O)NS(C)(=O)=O` [Compound 9, N-(Methylsulfonyl)-13-(3-n-pentylureido)tridec-8(Z)-enamide]: the “Vascular Relax. % (10 μM)” value with bovine coronary artery stood at 61%. In addition, the EC50 in the test on bovine coronary artery (Bos taurus) was 6700 nM. Also, the IC50 at Human recombinant sEH stood at 0.071 µM.

`CCCCNC(=O)C(=O)NCCCC/C=C\CCCCCCc1nnn[nH]1` [Compound 21]: the “Vascular Relax. % (10 μM)” value in the test with bovine coronary artery worked out at 96%. Further, in the test on bovine coronary artery (Bos taurus), the EC50 turned out to be 1700 nM. For the same molecule, the IC50 at Human recombinant sEH was more than 0.5 µM.

Regarding `CCCCCNC(=O)NCCCC/C=C\CCCCCCCc1nnn[nH]1` [Compound 22, 1-(13-(1H-Tetrazol-5-yl)tridec-5(Z)-enyl)-3-n-pentylurea], the “Vascular Relax. % (10 μM)” value with bovine coronary artery worked out at 110%. Also, in the test with bovine coronary artery (Bos taurus), the EC50 amounted to 1100 nM. Further, on Human recombinant sEH, the IC50 came to 0.032 µM.

For `CCCCCNC(=O)NCCCC/C=C\CCCCCSc1nnn[nH]1` [Compound 15, 1-(11-(1H-Tetrazol-5-ylthio)undec-5(Z)-enyl)-3-pentylurea], in the test on bovine coronary artery (Bos taurus), the activation at 10 µM was found to be 85% and the EC50 worked out at 3700 nM. The 50% inhibitory concentration (IC50) on Human recombinant sEH was found to be 0.022 µM.

Regarding `CCCCCCC(=O)N(CCCC/C=C\CCCCCCC(=O)NCC(=O)O)C(C)C` [Compound 5, 2-(13-(N-Isopropylheptanamido)tridec-8(Z)-enamido)acetic acid], the “Vascular Relax. % (10 μM)” value in the test on bovine coronary artery is 95%. In addition, in the test on bovine coronary artery (Bos taurus), the EC50 was found to be 1900 nM.

Regarding `CCCCCNC(=O)NCCCC/C=C\CCCCCS(=O)(=O)c1ncn[nH]1` [Compound 18], in the test with bovine coronary artery (Bos taurus), the activation at 10 µM was found to be 92% and the EC50 was 3100 nM. The IC50 at Human recombinant sEH came out at 0.023 µM.

`CCCCCNC(=O)NCCCC/C=C\CCCCCSc1ncn[nH]1` [Compound 16]: in the test with bovine coronary artery (Bos taurus), the activation at 10 µM worked out at 53% and the EC50 turned out to be 9800 nM. Moreover, on Human recombinant sEH, the IC50 worked out at 0.032 µM.

`CCCCCNC(=O)NCCCC/C=C\CCCCCCc1noc(=S)[nH]1` [Compound 28]: the “Vascular Relax. % (10 μM)” value in the test with bovine coronary artery is given as 93%. Also, in the test on bovine coronary artery (Bos taurus), the EC50 is 3300 nM. The IC50 on Human recombinant sEH is 0.031 µM.

As for `CCCCCCC(=O)N(CCCC/C=C\CCCCCCC(=O)OCCOCCOCCO)C(C)C` [Compound 1, 2-(2-(2-Hydroxyethoxy)ethoxy)ethyl 13-(N-isopropylheptanamido)tridec-8(Z)-enoate], in the test with bovine coronary artery, the “Vascular Relax. % (10 μM)” value was 86% and the EC50 worked out at 2900 nM. Further, at Human recombinant sEH, the IC50 was more than 0.5 µM.

As for `CCCCCNC(=O)NCCCC/C=C\CCCCCS(=O)(=O)c1ccccc1O` [Compound 14, 1-(11-(2-Hydroxyphenylsulfonyl)undec-5(Z)-enyl)-3-n-pentylurea], in the test on bovine coronary artery (Bos taurus), the activation at 10 µM came out at 76% and the EC50 was found to be 5000 nM.

Take `CCCCCNC(=O)NCCCC/C=C\CCCCCSc1ccccc1O` [Compound 13, 1-(11-(2-Hydroxyphenylthio)undec-5(Z)-enyl)-3-n-pentylurea]: in the test with bovine coronary artery (Bos taurus), the activation at 10 µM came to 48% and the EC50 was more than 10000 nM. The IC50 on Human recombinant sEH amounted to 0.006 µM.

With `CCCCCNC(=O)NCCCC/C=C\CCCCCCC1=NOS(=O)N1` (stereo not shown) [Compound 25], the “Vascular Relax. % (10 μM)” value with bovine coronary artery was determined as 109%. The EC50 in the test on bovine coronary artery (Bos taurus) is 340 nM. Further, on Human recombinant sEH, the IC50 amounted to 0.01 µM.

As for `CCCCCNC(=O)NCCCC/C=C\CCCCCCS(=O)(=O)[O-].[Na+]` [Compound 11], the “Vascular Relax. % (10 μM)” value in the test with bovine coronary artery came to 63%. Also, the EC50 in the test with bovine coronary artery (Bos taurus) was determined as 7600 nM. Moreover, on Human recombinant sEH, the half-inhibitory concentration (IC50) is 0.057 µM.

Take `CCCCCCC(=O)N(CCCC/C=C\CCCCCCc1nnn[nH]1)C(C)C` [Compound 19]: the “Vascular Relax. % (10 μM)” value in the test on bovine coronary artery was found to be 74%. In the test on bovine coronary artery (Bos taurus), the EC50 is 1000 nM.

Turning to `CCCCCNC(=O)NCCCC/C=C\CCCCCCC(=O)NS(=O)(=O)c1ccccc1` [Compound 8, 13-(3-n-Pentylureido)-N-(phenylsulfonyl)tridec-8(Z)-enamide], the “Vascular Relax. % (10 μM)” value in the test on bovine coronary artery was 73%. In addition, the EC50 in the test with bovine coronary artery (Bos taurus) was found to be 6000 nM. At Human recombinant sEH, the IC50 came to 0.041 µM.

Turning to `CCCCCNC(=O)NCCCC/C=C\CCCCCCP(=O)([O-])[O-].[Na+].[Na+]` [Compound 10], the “Vascular Relax. % (10 μM)” value with bovine coronary artery is listed as 71%. Besides, in the test on bovine coronary artery (Bos taurus), the EC50 is more than 10000 nM. Besides, on Human recombinant sEH, the 50% inhibitory concentration (IC50) is more than 0.5 µM.

Regarding `CCCCNC(=O)C(=O)NCCCCCOc1cccc2sc(NC(C)=O)nc12` [Compound 32], in the test with bovine coronary artery, the “Vascular Relax. % (10 μM)” value amounted to 96%. The EC50 in the test with bovine coronary artery (Bos taurus) stood at 2400 nM.

Take `CCCCCNC(=O)NCCCC/C=C\CCCCCNS(=O)(=O)c1ccccc1` [Compound 12, N-(11-(3-n-Pentylureido)undec-6(Z)-enyl)benzenesulfonamide]: in the test with bovine coronary artery (Bos taurus), the activation at 10 µM came out at 75% and the EC50 stood at 3400 nM. Further, at Human recombinant sEH, the IC50 stood at 0.032 µM.

`CCCCCNC(=O)NCCCC/C=C\CCCCOCC(=O)O` [Compound 4, 2-(10-(3-n-Pentylureido)dec-5(Z)-enyloxy)acetic acid]: the “Vascular Relax. % (10 μM)” value in the test on bovine coronary artery is recorded as 49%. For the same molecule, the 50% effective concentration (EC50) in the test on bovine coronary artery (Bos taurus) turned out to be 630 nM. In addition, at Human recombinant sEH, the IC50 was 0.237 µM.

For the molecule `CCCCNC(=O)C(=O)NCCCC/C=C\CCCCCCC1=NOS(=O)N1` (stereo not shown) [Compound 27], in the test with bovine coronary artery (Bos taurus), the activation at 10 µM was 116% and the EC50 came to 360 nM. In addition, at Human recombinant sEH, the IC50 is more than 0.5 µM.

Consider `CCCCCNC(=O)NCCCC/C=C\CCCCCCc1noc(=O)[nH]1` [Compound 23], for which the “Vascular Relax. % (10 μM)” value with bovine coronary artery came to 89%. For the same molecule, in the test on bovine coronary artery (Bos taurus), the EC50 was determined as 1100 nM. Besides, the half-maximal inhibitory concentration (IC50) at Human recombinant sEH was found to be 0.065 µM.

With `CCCCCN(C)C(=O)N(C)CCCC/C=C\CCCCCCC(=O)NCC(=O)O` [Compound 6, 2-(13-(1,3-Dimethyl-3-n-pentylureido)tridec-8(Z)-enamido)acetic acid], the “Vascular Relax. % (10 μM)” value in the test on bovine coronary artery is on record as 92%. In the test with bovine coronary artery (Bos taurus), the EC50 was 2750 nM. The 50% inhibitory concentration (IC50) on Human recombinant sEH was more than 0.5 µM.

In the case of `CCCCCNC(=O)NCCCC/C=C\CCCCC[S+]([O-])c1ncn[nH]1` (stereo not shown) [Compound 17], in the test with bovine coronary artery (Bos taurus), the activation at 10 µM came out at 92% and the EC50 came out at 3500 nM. At Human recombinant sEH, the IC50 was found to be 0.096 µM.

`CCCCCNC(=O)NCCCC/C=C\CCCCCCC(=O)OCCOCCOCCO` [Compound 2, 2-(2-(2-Hydroxyethoxy)ethoxy)ethyl 13-(3-n-pentylureido)tridec-8(Z)-enoate]: in the test with bovine coronary artery, the “Vascular Relax. % (10 μM)” value is 72% and the EC50 was determined as 5100 nM.

For orientation: EC50 means the concentration giving half of the maximal effect. As usually defined, the IC50 is the concentration needed to halve the response being measured.
